Test system: T1, μ-receptor (μ-receptor-RLuc8)
T1 construct: gene Oprm1; construct from Gillis, Gondin et al. 2020
Assay: BRET, Nb33-Venus recruitment to μ-receptor-RLuc8 in HEK293 cells
Type: cell-based
Conditions: agonist; 10 min after addition, normalised to DAMGO

SMILES	pEC50
COc1ccc2c3c1O[C@H]1C(=O)CC[C@@]4(O)[C@@H](C2)N(C)CC[C@]314 [oxycodone]	5.8 ± 0.05
CN1c2ccccc2C(NCCCCCCC(=O)O)c2ccc(Cl)cc2S1(=O)=O (stereo not drawn) [tianeptine]	5.8 ± 0.07
COc1ccsc1CNCC[C@@]1(c2ccccn2)CCOC2(CCCC2)C1 [oliceridine]	6.8 ± 0.1

Reference: PMC10952895, “Assessment of the potential of novel and classical opioids to induce respiratory depression in mice” (British Journal of Pharmacology, 2023)
